The source of these data is ChEMBL document CHEMBL1909046, “DrugMatrix in vitro pharmacology data”.

Structures are written as SMILES. Where a SMILES comes first, the peptide text is derived from it. Bridges are numbered along the chain shown (N, C = ends). [ ]: non-standard residue; d: D form. The star is where a group is joined. Threoninol(2S,3R) = C[C@@H](O)[C@H](CO)N*

Assay [1] concerns the target T1, Alpha-2C adrenergic receptor (Homo sapiens, UniProt P18825).
T1 sequence (P18825 whole entry): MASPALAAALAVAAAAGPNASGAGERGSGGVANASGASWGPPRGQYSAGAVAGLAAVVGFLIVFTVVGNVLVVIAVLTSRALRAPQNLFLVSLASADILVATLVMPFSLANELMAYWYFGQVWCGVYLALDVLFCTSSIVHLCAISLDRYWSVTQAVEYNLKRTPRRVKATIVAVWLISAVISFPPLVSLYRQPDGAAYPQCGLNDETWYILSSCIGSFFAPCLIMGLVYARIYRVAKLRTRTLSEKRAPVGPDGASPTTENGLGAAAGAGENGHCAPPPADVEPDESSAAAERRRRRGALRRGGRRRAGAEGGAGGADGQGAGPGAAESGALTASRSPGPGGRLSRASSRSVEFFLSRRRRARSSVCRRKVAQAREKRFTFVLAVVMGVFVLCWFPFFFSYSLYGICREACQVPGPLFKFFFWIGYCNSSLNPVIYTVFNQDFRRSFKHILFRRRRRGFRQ
Briefly: DRUGMATRIX: Adrenergic Alpha-2C radioligand binding (ligand: [3H] MK-912). The assay is classed as cell membranes, Sf9, Membrane.

Assay [2] has as its target Sodium-dependent noradrenaline transporter (Homo sapiens, UniProt P23975). Briefly: DRUGMATRIX: Norepinephrine Transporter radioligand binding (ligand: [125I] RTI-55). Type of assay: cell membranes, MDCK, Membrane. As to conditions: Not Active = under 50% inhibition at 10 µM.
A short description of assay [3]: DRUGMATRIX: GABAA, Muscimol, Central radioligand binding (ligand: [3H] Muscimol). The assay is classed as cell membranes, Rattus norvegicus, Wistar, Brain, Membrane. The note with it: Not Active = under 50% inhibition at 10 µM.
Assay [4] in a line: DRUGMATRIX: Glutamate, NMDA, Agonism radioligand binding (ligand: [3H] CGP-39653). Type of assay: cell membranes, Rattus norvegicus, Wistar, Cerebral cortex, Membrane. The note with it: Not Active = under 50% inhibition at 10 µM.
Assay [5] is described as follows: DRUGMATRIX: Interleukin IL-1 radioligand binding (ligand: [125I] interleukin 1beta). Type of assay: cell membranes, Membrane. The note with it: nih3t3; Not Active = under 50% inhibition at 10 µM.
Assay [6] has as its target Protein phosphatase 3 catalytic subunit alpha (Homo sapiens, UniProt Q08209). The arrangement: species or system Escherichia coli.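 Note: inhibition of calcineurin (PP2B) enzyme activity, measured with DiFMUP as the substrate; in other assays of this panel Not Active means under 50% inhibition at 10 µM.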
The target in assay [7] is Acetylcholinesterase (Homo sapiens, UniProt P22303). Briefly: DRUGMATRIX: Acetylcholinesterase enzyme inhibition (substrate: acetylthiocholine). The note with it: hek293; Not Active = under 50% inhibition at 10 µM. Type of assay: cell-based, HEK293.
Sequence of Acetylcholinesterase (P22303 whole entry): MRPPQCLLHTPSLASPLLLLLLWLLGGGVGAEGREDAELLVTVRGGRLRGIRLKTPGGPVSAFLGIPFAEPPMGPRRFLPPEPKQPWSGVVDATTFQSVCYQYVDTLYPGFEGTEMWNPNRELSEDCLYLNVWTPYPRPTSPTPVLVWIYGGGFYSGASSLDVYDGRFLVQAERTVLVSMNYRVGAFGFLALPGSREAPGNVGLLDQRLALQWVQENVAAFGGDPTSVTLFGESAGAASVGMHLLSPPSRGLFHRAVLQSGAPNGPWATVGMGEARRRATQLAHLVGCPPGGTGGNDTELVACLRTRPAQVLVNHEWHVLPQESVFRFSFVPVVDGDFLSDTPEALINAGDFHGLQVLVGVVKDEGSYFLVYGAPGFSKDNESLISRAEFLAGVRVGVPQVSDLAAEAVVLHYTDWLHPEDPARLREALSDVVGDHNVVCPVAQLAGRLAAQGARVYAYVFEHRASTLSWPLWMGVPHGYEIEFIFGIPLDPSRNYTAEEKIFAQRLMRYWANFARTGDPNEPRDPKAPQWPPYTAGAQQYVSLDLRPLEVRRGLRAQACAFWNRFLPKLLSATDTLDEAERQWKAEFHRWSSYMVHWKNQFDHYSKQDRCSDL

Sequence of Sodium-dependent noradrenaline transporter (P23975 whole entry): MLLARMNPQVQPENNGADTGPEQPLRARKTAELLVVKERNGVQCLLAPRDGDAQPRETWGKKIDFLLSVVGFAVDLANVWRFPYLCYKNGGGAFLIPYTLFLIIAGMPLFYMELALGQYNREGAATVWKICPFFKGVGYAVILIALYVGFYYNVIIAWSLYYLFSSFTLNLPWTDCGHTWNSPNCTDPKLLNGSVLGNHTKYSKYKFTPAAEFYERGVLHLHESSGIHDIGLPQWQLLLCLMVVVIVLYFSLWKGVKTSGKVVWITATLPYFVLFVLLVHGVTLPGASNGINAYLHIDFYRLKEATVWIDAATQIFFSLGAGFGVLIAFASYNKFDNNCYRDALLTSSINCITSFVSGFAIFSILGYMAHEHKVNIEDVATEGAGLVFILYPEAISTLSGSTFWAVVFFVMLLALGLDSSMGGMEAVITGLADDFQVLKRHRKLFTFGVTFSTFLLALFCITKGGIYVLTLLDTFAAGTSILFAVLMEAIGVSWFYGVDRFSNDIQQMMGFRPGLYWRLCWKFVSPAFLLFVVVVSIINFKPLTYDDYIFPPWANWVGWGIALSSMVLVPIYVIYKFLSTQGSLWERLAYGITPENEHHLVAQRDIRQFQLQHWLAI

Turning to `COc1ccccc1C(=O)N1CCC(Cc2ccccc2)CC1`, the IC50 result in assay [1] (sf9), in assay [2] (mdck), in assay [3], in assay [4], in assay [5] and in assay [6] was “Not Active” each time. Also, in assay [7], the IC50 entry is recorded as “Not Active”. Besides, the Ki result in assay [3], in assay [4] and in assay [5] was “Not Active” throughout.
In the case of `Cc1ccccc1C(=O)N1CCC(Cc2ccccc2)CC1`, the IC50 entry in assay [1] (sf9), in assay [2] (mdck), in assay [3], in assay [4], in assay [5] and in assay [6] was “Not Active” throughout. Moreover, in assay [7], the IC50 result was “Not Active”. For the same compound, the Ki result in assay [3], in assay [4] and in assay [5] was “Not Active” throughout.
With `O=C1CC[C@H](N2C(=O)c3ccccc3C2=O)C(=O)N1`, the IC50 result in assay [1] (sf9), in assay [2] (mdck), in assay [3], in assay [4], in assay [5] and in assay [6] was “Not Active” in each case. Besides, the IC50 entry in assay [7] was “Not Active”. In addition, the Ki result in assay [3], in assay [4] and in assay [5] was “Not Active” in each case.
On to `N=C(Nc1ccccc1)Nc1ccccc1`, for which the IC50 entry was “Not Active” in assay [1] (sf9); 1.15 µM in assay [2] (read-out: IC50); “Not Active” in assay [3]; “Not Active” in assay [4]; “Not Active” in assay [5]; “Not Active” in assay [6]. In assay [7], the IC50 entry is given as “Not Active”. For the same compound, the Ki in assay [2] (read-out: Ki) is 1.14 µM; in assay [3] it was “Not Active”; in assay [4], “Not Active”; in assay [5], “Not Active”.
As for `C[C@@H](O)[C@H](CO)NC(=O)[C@@H]1CSSC[C@H](NC(=O)[C@H](N)Cc2ccccc2)C(=O)N[C@@H](Cc2ccccc2)C(=O)N[C@H](Cc2c[nH]c3ccccc23)C(=O)N[C@@H](CCCCN)C(=O)N[C@@H]([C@@H](C)O)C(=O)N1` (H-[dF]CF[dW]KTC-{Threoninol(2S,3R)}; disulfide 2-7), the IC50 result in assay [1] (sf9), in assay [2] (mdck), in assay [3], in assay [4], in assay [5] and in assay [6] was “Not Active” in each case. Besides, the IC50 result in assay [7] is given as “Not Active”. Moreover, the Ki entry in assay [3], in assay [4] and in assay [5] was “Not Active” each time.
Take `S=C=Nc1cccc2ccccc12` [1-NAPHTHYLISOTHIOCYANATE]: the IC50 in assay [1] (read-out: IC50) is 54.5 µM; in assay [2] (mdck), “Not Active”; in assay [3], “Not Active”; in assay [4], “Not Active”; in assay [5] it was “Not Active”; in assay [6], “Not Active”. Moreover, the IC50 result in assay [7] is given as “Not Active”. Further, the Ki in assay [1] (read-out: Ki) was 7.92 µM; in assay [3], “Not Active”; in assay [4], “Not Active”; in assay [5], “Not Active”.
As for `C[C@](O)(CS(=O)(=O)c1ccc(F)cc1)C(=O)Nc1ccc(C#N)c(C(F)(F)F)c1` [(R)-BICALUTAMIDE], the IC50 entry in assay [1] (sf9), in assay [3], in assay [4], in assay [5], in assay [6] and in assay [7] was “Not Active” each time. Also, the Ki entry in assay [3], in assay [4] and in assay [5] was “Not Active” in each case.
Take `CCCC(=O)Nc1ccc(OCC(O)CNC(C)C)c(C(C)=O)c1` (stereo not drawn) [ACEBUTOLOL]: the IC50 entry in assay [1] (sf9), in assay [2] (mdck), in assay [3], in assay [4], in assay [5] and in assay [6] was “Not Active” throughout. The IC50 entry in assay [7] was “Not Active”. For the same compound, the Ki entry in assay [3], in assay [4] and in assay [5] was “Not Active” in each case.
As for `CC(=O)Nc1ccc(O)cc1` [ACETAMINOPHEN], the IC50 entry in assay [1] (sf9), in assay [2] (mdck), in assay [3], in assay [4], in assay [5] and in assay [6] was “Not Active” throughout. Moreover, in assay [7], the IC50 entry was “Not Active”. Besides, the Ki result in assay [3], in assay [4] and in assay [5] was “Not Active” in each case.
As for `COc1cc2c(c3oc(=O)c4c(c13)CCC4=O)[C@@H]1C=CO[C@@H]1O2` [AFLATOXIN], the IC50 result in assay [1] (sf9), in assay [2] (mdck), in assay [3], in assay [4], in assay [5] and in assay [6] was “Not Active” throughout. Further, the IC50 entry in assay [7] was “Not Active”. Also, the Ki result in assay [1] (sf9), in assay [2] (mdck), in assay [3], in assay [4], in assay [5] and in assay [6] was “Not Active” throughout. The Ki result in assay [7] was “Not Active”.
With `N=C(N)NC(=O)c1nc(Cl)c(N)nc1N` [AMILORIDE], the 50% inhibitory concentration (IC50) entry in assay [1] (sf9), in assay [2] (mdck), in assay [3], in assay [4], in assay [5] and in assay [6] was “Not Active” each time. The IC50 entry in assay [7] is on record as “Not Active”. The inhibitory constant (Ki) result in assay [3], in assay [4] and in assay [5] was “Not Active” each time.
Regarding `Cc1cc(=O)n(-c2ccccc2)n1C` [ANTIPYRINE], the IC50 result in assay [1] (sf9), in assay [2] (mdck), in assay [3], in assay [4], in assay [5] and in assay [6] was “Not Active” each time. In addition, the IC50 entry in assay [7] is listed as “Not Active”. In addition, the Ki result in assay [3], in assay [4] and in assay [5] was “Not Active” in each case.
In the case of `C/C=C/C[C@@H](C)[C@@H](O)[C@H]1C(=O)N[C@@H](CC)C(=O)N(C)CC(=O)N(C)[C@@H](CC(C)C)C(=O)N[C@@H](C(C)C)C(=O)N(C)[C@@H](CC(C)C)C(=O)N[C@@H](C)C(=O)N[C@H](C)C(=O)N(C)[C@@H](CC(C)C)C(=O)N(C)[C@@H](CC(C)C)C(=O)N(C)[C@@H](C(C)C)C(=O)N1C` [CYCLOSPORINE], the IC50 entry in assay [1] (sf9), in assay [2] (mdck), in assay [3], in assay [4], in assay [5] and in assay [7] was “Not Active” in each case. For the same compound, the Ki result in assay [3], in assay [4] and in assay [5] was “Not Active” in each case.
For `CCc1c2c(nc3ccc(OC(=O)N4CCC(N5CCCCC5)CC4)cc13)-c1cc3c(c(=O)n1C2)COC(=O)[C@]3(O)CC` [IRINOTECAN], the IC50 is 3.17 µM in assay [1] (read-out: IC50); “Not Active” in assay [2] (mdck); “Not Active” in assay [3]; “Not Active” in assay [4]; “Not Active” in assay [5]; “Not Active” in assay [6]. Besides, the Ki in assay [1] (read-out: Ki) was 0.461 µM; in assay [3], “Not Active”; in assay [4], “Not Active”; in assay [5], “Not Active”.
Consider `COc1ccc2cc([C@H](C)C(=O)O)ccc2c1` [NAPROXEN], for which the IC50 result in assay [1] (sf9), in assay [2] (mdck), in assay [3], in assay [4], in assay [5] and in assay [6] was “Not Active” throughout. Moreover, the Ki entry in assay [3], in assay [4] and in assay [5] was “Not Active” throughout.
